Measurements from the NIST ThermoML archive (doi:10.1016/j.fluid.2011.02.020).
Numbers after ± are expanded uncertainties.

Assay: mn = molality of the nth substance listed, in mol/kg
Conditions: 298.15 K, 101 kPa, Liquid, Vibrating tube method

CCCCCCC(F)(F)C(F)(F)C(F)(F)C(F)(F)F [1,1,1,2,2,3,3,4,4-nonafluorodecane] + CCCCCCCC
Conditions | molar volume [m3/mol]
m1 = 0.0465 | 0.0002496 ± 3e-06
m1 = 0.0608 | 0.0002501 ± 3e-06
m1 = 0.0703 | 0.0002498 ± 3e-06
m1 = 0.1003 | 0.0002498 ± 3e-06
m1 = 0.1403 | 0.0002498 ± 3e-06
m1 = 0.1663 | 0.0002493 ± 3e-06
m1 = 0.1689 | 0.0002492 ± 3e-06
m1 = 0.2127 | 0.0002497 ± 3e-06

CCCCCCCCC(F)(F)C(F)(F)C(F)(F)C(F)(F)F [1,1,1,2,2,3,3,4,4-nonafluorododecane] + CCCCCCCC
Conditions | molar volume [m3/mol]
m1 = 0.0685 | 0.0002816 ± 3e-06
m1 = 0.0996 | 0.0002815 ± 3e-06
m1 = 0.1061 | 0.0002817 ± 3e-06
m1 = 0.1259 | 0.0002815 ± 3e-06
m1 = 0.1271 | 0.0002817 ± 3e-06
m1 = 0.1522 | 0.0002818 ± 3e-06
m1 = 0.1885 | 0.0002815 ± 3e-06
m1 = 0.2032 | 0.0002815 ± 3e-06

CCCCCC(F)(F)C(F)(F)C(F)(F)C(F)(F)F [1,1,1,2,2,3,3,4,4-nonafluorononane] + CCCCCCCC
Conditions | molar volume [m3/mol]
m1 = 0.0527 | 0.0002338 ± 3e-06
m1 = 0.0601 | 0.0002337 ± 3e-06
m1 = 0.0947 | 0.0002337 ± 3e-06
m1 = 0.1337 | 0.0002337 ± 3e-06
m1 = 0.1437 | 0.0002336 ± 3e-06
m1 = 0.1755 | 0.0002334 ± 3e-06
m1 = 0.1914 | 0.0002334 ± 3e-06
m1 = 0.2141 | 0.0002334 ± 3e-06

FC(F)(F)C(F)(F)C(F)(F)C(F)(F)C(F)(F)C(F)(F)C(F)(F)C(F)(F)C(F)(F)F [eicosafluorononane] + CCCCCCCC
Conditions | molar volume [m3/mol]
m1 = 0.0532 | 0.0003069 ± 3e-06
m1 = 0.0565 | 0.000307 ± 3e-06
m1 = 0.0714 | 0.0003073 ± 3e-06
m1 = 0.0832 | 0.0003067 ± 3e-06
m1 = 0.1105 | 0.000307 ± 3e-06
m1 = 0.1219 | 0.0003062 ± 3e-06
m1 = 0.1488 | 0.0003058 ± 3e-06
m1 = 0.1513 | 0.0003065 ± 3e-06

FC(F)(F)C(F)(F)C(F)(F)C(F)(F)C(F)(F)C(F)(F)C(F)(F)C(F)(F)F [octadecafluorooctane] + CCCCCCCC
Conditions | molar volume [m3/mol]
m1 = 0.0362 | 0.0002822 ± 3e-06
m1 = 0.0617 | 0.0002816 ± 3e-06
m1 = 0.0923 | 0.0002798 ± 3e-06
m1 = 0.1157 | 0.0002803 ± 3e-06
m1 = 0.1445 | 0.0002792 ± 3e-06
m1 = 0.1585 | 0.0002786 ± 3e-06
m1 = 0.1808 | 0.0002784 ± 3e-06
m1 = 0.2115 | 0.0002788 ± 3e-06

FC(F)(F)C(F)(F)C(F)(F)C(F)(F)C(F)(F)C(F)(F)F [perfluorohexane] + CCCCCCCC
Conditions | molar volume [m3/mol]
m1 = 0.088 | 0.0002294 ± 3e-06
m1 = 0.1035 | 0.0002312 ± 3e-06
m1 = 0.131 | 0.0002293 ± 3e-06
m1 = 0.1624 | 0.0002278 ± 3e-06
m1 = 0.1833 | 0.0002292 ± 3e-06
m1 = 0.2156 | 0.0002299 ± 3e-06
m1 = 0.2594 | 0.0002276 ± 3e-06
m1 = 0.268 | 0.0002308 ± 3e-06
m1 = 0.304 | 0.0002288 ± 3e-06
m1 = 0.3424 | 0.0002285 ± 3e-06
m1 = 0.3621 | 0.00023 ± 3e-06
m1 = 0.4051 | 0.0002288 ± 3e-06
